System: HBV
Assay: Viral load production from HepAD38 cells, qPCR of the HBV core sequence in supernatant
Assay type: cell-based
Settings: Hepatitis B virus, HePAD38, 120 h, HepAD38 cells, 5 days, HBV DNA in supernatant by qPCR; Table 1 ranges; read-out: Activity (viral load lowering EC50)
Description: HepAD38 cells grown in a T-150 flask (Corning, cat#: 430825) with Growth Medium (DMEM/F12 (1:1) (Hyclone, cat#: SH30023.02), 1X Pen/Strep (Invitrogen, cat#: 15140-122), 10% FBS (Tissue Culture Biologics, cat#: 101), 250 µg/mL G418 (Alfa Aesar, cat#: J62671), 1 µg/mL Tetracycline (Teknova, cat#: T3320)) were detached with 0.25% trypsin-EDTA (Invitrogen, cat#: 25200-056). Tetracycline-free treatment medium (15 mL DMEM/F12 (1:1) 1× Pen/step, with 2% FBS, Tet-system approved (Clontech, cat#: 631106) were then added to mix, transferred into a 50 ml conical tube (Falcon, cat#: 21008-918,) and spun at 1300 rpm for 5 min. Pelleted cells were then re-suspended/washed with 50 mL of 1X DPBS (Invitrogen, cat#: 14190-136) 2 times and 50 mL treatment medium twice. HepAD38 cells were then re-suspended with 10 mL of treatment medium, syringed and counted. Wells of 96-well clear bottom TC plate (Corning, cat#: 3904,) were seeded at 50.000 cells/well in 180 µL of treatment medium, and 20 µL of either 10% DMSO (Sigma, cat#: D4540) as controls or a 10X solution of test compounds in 10% DMSO in treatment media was added for a final compound concentration starting at 10 µM, and plates were incubated in 5% CO2 incubator at 37° C. for 5 days.
Subsequently viral load production was assayed by quantitative PCR (qPCR) of the HBV core sequence. PCR reaction mixture containing forward primers HBV-f 5′-CTGTGCCTTGGGTGGCTTT-3′ (IDT DNA), Reverse primers HBV-r 5′-[…]-3′ (IDT DNA), Fluorescent TaqMan^tm Probes HBV-probe 5′-FAM/AGCTCCAAA/ZEN/[…]/3IABkFQ-3′ (IDT DNA), 10 µL/well of PerfeCTa® qPCR ToughMix® (Quanta Biosciences, Cat#: 95114-05 K), and 6 µL/well of DEPC water (Alfa Aesar, cat#: J62087) was prepared. Four µL of supernatant was added to 16 µL of the reaction mixture in a qPCR plate (Applied Biosytems, Cat#: 4309849), sealed with a film (Applied Biosystems, Cat#: 4311971), centrifuged for a few seconds, and subsequently run on an Applied Biosystems VIIA7. The PCR mixture was incubated at 45° C. for 5 min, then 95° C. for 10 min, followed by 40 cycles of 10 seconds at 95° C. and 20 seconds at 60° C. Viral load was quantified against known HBV DNA standards by using ViiA™ 7 Software. Viral load in the supernatant from wells with treated cells were compared against viral load in supernatant from DMSO control wells (≥ 3 per plate). Cell viability assay was performed with CellTiter-Glo Luminescent Cell Viability Assay (Promega, cat#: G7573) with modification. Mixed appropriate amount of CellTiter-Glo (CTG) 1X DPBS in a 1:1 ratio, added 100 uL of the mixture to each well followed completely removal of all supernatant in each well without touching cell surface. Incubated the plate at room temperature for 10 min on an orbital shaker, and then read the plate with a plate reader (TECAN M1000 or Envision). EC50 or CC50 values were calculated through curve-fitting of the four-parameter nonlinear-logistic-regression model (GraphPad Prism or Dotmatics). CC50 values were all >10 µM.

| SMILES | EC50 |
| --- | --- |
| Cn1nc(C2CC3CN(C(=O)NCc4cccc(F)c4)CC3C2)c(C(=O)Nc2ccc(F)c(Cl)c2)c1N (stereo not drawn) [Example 131, 5-(5-Amino-4-((3-chloro-4-fluorophenyl)carbamoyl)-1-methyl-1H-pyrazol-3-yl)-N-(3-fluorobenzyl)hexahydrocyclopenta[c]pyrrole-2(1H)-carboxamide] | 10 to 50 nM |
| COCCOCCOCCOCCOCCOCCOC(=O)OCn1cc(C2(O)CC3CC(c4nn(C)c(N)c4C(=O)Nc4ccc(F)c(Cl)c4)CC3C2)c(C(F)(F)F)n1 (stereo not drawn) [Example 228] | < 10 nM |
| Cn1ccc(C2(O)CC3CC(c4nn(C)c(N)c4C(=O)Nc4ccc(F)c(Cl)c4)CC3C2)n1 (stereo not drawn) [Example 153] | < 10 nM |
| Cn1nc(C2CC3CC(O)(c4cc(Br)ncc4F)CC3C2)c(C(=O)Nc2ccc(F)c(Cl)c2)c1N (stereo not drawn) [Example 166] | 10 to 50 nM |
| Cc1cc(C2(O)CC3CC(c4nn(C)c(N)c4C(=O)Nc4ccc(F)c(Cl)c4)CC3C2)ccc1F (stereo not drawn) [Example 13, 5-Amino-N-(3-chloro-4-fluorophenyl)-3-(5-(4-fluoro-3-methylphenyl)-5-hydroxyoctahydropentalen-2-yl)-1-methyl-1H-pyrazole-4-carboxamide] | 10 to 50 nM |
| Cn1nc(C2CC3CN(C(=O)c4cccc(F)c4)CC3C2)c(C(=O)Nc2ccc(F)c(Cl)c2)c1N (stereo not drawn) [Example 121, 5-Amino-N-(3-chloro-4-fluorophenyl)-3-(2-(3-fluorobenzoyl)octahydrocyclopenta[c]pyrrol-5-yl)-1-methyl-1H-pyrazole-4-carboxamide] | 10 to 50 nM |
| Cn1nc(C2CC3CC(CNC(=O)C4CC4)CC3C2)c(C(=O)Nc2ccc(F)c(Cl)c2)c1N (single isomer, unassigned) [Example 40, 5-Amino-N-(3-chloro-4-fluorophenyl)-3-(5-(cyclopropanecarboxamidomethyl)octahydropentalen-2-yl)-1-methyl-1H-pyrazole-4-carboxamide] | < 10 nM |
| Cn1nc(C2CC3CN(C4COC4)CC3C2)c(C(=O)Nc2ccc(F)c(Cl)c2)c1N (stereo not drawn) [Example 117, 5-Amino-N-(3-chloro-4-fluorophenyl)-1-methyl-3-(2-(oxetan-3-yl)octahydrocyclopenta[c]pyrrol-5-yl)-1H-pyrazole-4-carboxamide] | 50 to 500 nM |
| Cn1nc(C2CC3CC(N4CC=C(C(N)=O)CC4)CC3C2)c(C(=O)Nc2ccc(F)c(Cl)c2)c1N (stereo not drawn) [Example 189] | 10 to 50 nM |
| Cn1nc(C2CC3CC(Oc4ncccn4)CC3C2)c(C(=O)Nc2ccc(F)c(Cl)c2)c1N (stereo not drawn) [Example 231] | 10 to 50 nM |
| Cc1ncc(C2(O)CC3CC(c4nn(C)c(N)c4C(=O)Nc4ccc(F)c(Cl)c4)CC3C2)s1 (stereo not drawn) [Example 161] | < 10 nM |
| Cn1nc(C2CC3CC(O)(c4cc[nH]n4)CC3C2)c(C(=O)Nc2ccc(F)c(Cl)c2)c1N (stereo not drawn) [Example 178] | < 10 nM |
| CC(n1cccn1)C1(O)CC2CC(c3nn(C)c(N)c3C(=O)Nc3ccc(F)c(Cl)c3)CC2C1 (stereo not drawn) [Example 199] | < 10 nM |
| Cc1coc(C2(O)CC3CC(c4nn(C)c(N)c4C(=O)Nc4ccc(F)c(Cl)c4)CC3C2)n1 (stereo not drawn) [Example 183] | < 10 nM |
| Cn1nc(C2CC3CC(N4CCC(C(N)=O)CC4)CC3C2)c(C(=O)Nc2ccc(F)c(Cl)c2)c1N (stereo not drawn) [Example 187] | 50 to 500 nM |
| Cn1nc(C2CC3CN(C(=O)NC4CC(F)(F)C4)CC3C2)c(C(=O)Nc2ccc(F)c(Cl)c2)c1N (stereo not drawn) [Example 123, 5-(5-Amino-4-((3-chloro-4-fluorophenyl)carbamoyl)-1-methyl-1H-pyrazol-3-yl)-N-(3,3-difluorocyclobutyl)hexahydrocyclopenta[c]-pyrrole-2(1H)-carboxamide] | 50 to 500 nM |
| Cc1cc(C2(O)CC3CC(c4nn(C)c(N)c4C(=O)Nc4ccc(F)c(Cl)c4)CC3C2)n(C)n1 (stereo not drawn) [Example 217] | < 10 nM |
| Cn1nc(C2CC3CN(C(=O)c4cnc(C(F)(F)F)s4)CC3C2)c(C(=O)Nc2ccc(F)c(Cl)c2)c1N (stereo not drawn) [Example 120, 5-Amino-N-(3-chloro-4-fluorophenyl)-1-methyl-3-(2-(2-(trifluoromethyl)thiazole-5-carbonyl)octahydrocyclopenta[c]pyrrol-5-yl)-1H-pyrazole-4-carboxamide] | 50 to 500 nM |

Reference: patent publication US20230295096A1, “PYRAZOLE CARBOXAMIDE COMPOUNDS FOR TREATMENT OF HBV” (ASSEMBLY BIOSCIENCES, INC., priority 2020, published 2023)
